Where a name gives a salt, the structure may show the parent alone.
Test system: patients hospitalized for acute heart failure (AHF)
Test: Diuresis over 24 h during and after study drug infusion
Type: in vivo, human
Description: This study was a phase II, multicenter, randomized, double-blind, placebo-controlled, parallel group investigation, conducted at two sites in Italy and eight sites in China. All patients provided written informed consent. The study was approved by country regulatory authorities and by local institutional review boards. The trial is registered in the European Clinical Trials Database (EudraCT 2013-000540-26) and ClinicalTrials.gov (NCT02617446).
Patients were randomized 2:1 to istaroxime or placebo 24 h infusion and were enrolled in two sequential cohorts, the first with an istaroxime dose of 0.5 μg/kg/min and the second with an istaroxime dose of 1.0 μg/kg/min. At the end of cohort 1 enrollment, an independent Data Safety and Monitoring Board conducted an interim safety analysis of unblinded data before proceeding to cohort 2 enrollment. Inclusion criteria were: age ≥18 years, an ongoing hospitalization for AHF with dyspnoea at rest or minimal exertion and need for intravenous diuretic therapy (40 mg intravenous furosemide), SBP between 90 and 125 mmHg without signs or symptoms of peripheral hypoperfusion: LVEF ≤40%: intermediate to high E/e′ ratio by tissue Doppler echocardiography (10); brain natriuretic peptide (BNP) or N-terminal pro BNP (NT-proBNP) plasma levels ≥350 pg/mL or ≥1400 pg/mL, respectively, and presence of adequate echocardiographic windows. The main exclusion criteria were: concomitant or planned treatment with intravenous vasodilators, inotropes or vasopressors: treatment with oral digoxin (patients treated with digoxin within the last week could be randomized if the plasma concentration at screening was 0.5 ng/mL); acute coronary syndrome or stroke within the past 3 months: coronary artery bypass graft or percutaneous coronary intervention within the past month or planned in the next month: resting HR >120 bpm or <50 bpm: life-threatening ventricular arrhythmia or implantable cardioverter-defibrillator shock within the past month: fever 38° C.; serum creatinine 3.0 mg/dL or estimated glomerular filtration rate (eGFR) 30 mL/min/m2; serum potassium 5.3 mmol/L or 3.8 mmol/L; severe hepatic dysfunction.
The study design included a 24 h screening period, a 24 h study drug infusion phase (day 1), a post-treatment phase (days 2-4), and a follow-up visit at day 30 (FIG. 5). Patients could be enrolled at any time after admission. The use of oral medications was permitted during the study with the exception of digoxin. Intravenous diuretics were permitted during the treatment period at stable doses, unless changes were required due to clinically relevant variations of the patient's condition. If treatment with an inotrope was clinically necessary during the infusion period, the investigational product was discontinued. Echocardiography was performed according to international standards at screening, baseline (just before starting study drug infusion), 6, 24 h (just before infusion end), and 48 h after infusion start. Echocardiographic measurements at baseline, 6, 24, and 48 h were evaluated in a blinded fashion by a CoreLab located at the University and Civil Hospital of Brescia, Italy. E/e′ ratio was calculated as the ratio between the peak early diastolic mitral flow velocity (E wave) and the mean of the annular lateral (e′ lateral) and septal (e′ septal) velocities, according to standard guidelines.^20 Intraobserver and interobserver variability in E/e′ measurement was tested on the 15% of the recordings and is shown in FIG. 6. Self-reported dyspnoea was assessed using a 100 mm VAS, with zero representing the worst level of dyspnoea and 10 the best breathing condition. Twenty-four hour ECG monitoring was performed using a three-lead device (Mortara industries, Milwaukee, WI, USA) during the day of screening, the infusion period, and the day after (the latter was optional). Analysis was conducted by a blinded CoreLab (ICS Maugeri, Italy). […]

C[C@]12CCC(=NOCCN)C[C@@H]1C(=O)C[C@@H]1[C@@H]2CC[C@]2(C)C(=O)CC[C@@H]12 [Istaroxime, (E,Z)-3-((2-aminoethoxy)imino)androstane-6,17-dione hydrochloride]
Diuresis, median (0.5 μg/kg/min, 0-24 h): 2700 mL
Diuresis, median (0.5 μg/kg/min, 24-48 h): 1800 mL
Diuresis, median (0.5 μg/kg/min, 48-72 h): 1650 mL
Diuresis, median (1.0 μg/kg/min, 0-24 h): 1975 mL
Diuresis, median (1.0 μg/kg/min, 24-48 h): 1260 mL
Diuresis, median (1.0 μg/kg/min, 48-72 h): 1350 mL
Overall diuresis during the 24 h infusion (compared to placebo): numerically higher

— US12697343B2, “Intravenous istaroxime for the treatment of acute heart failure” (Seismic Pharmaceuticals Operations LLC, priority 2021, dated 2026)
